From patent US20160331717A1, “CABAZITAXEL AND ITS USE FOR TREATING CANCER” (AVENTIS PHARMA S.A., priority 2015, published 2016)
Like-named read-outs stand apart in the source and are kept apart here.

Tests used:
[1] = Pharmacokinetics of cabazitaxel in POP6792 (plasma, LC-MS/MS, Cycle 1); format: in vivo, human
Description: Total cabazitaxel concentrations in plasma were determined using a validated liquid chromatography with tandem mass spectrometry method (LC-MS/MS) with a lower limit of quantification (LLOQ) of 1 ng/mL.

[2] = POH0124; CV=38.8%, n=170; cited from earlier work
[3] = test system: advanced solid tumor patients with varying degrees of hepatic impairment; conditions: for maximum tolerated dose (MTD): 1-hour IV infusion every 3 weeks; for death related to study drug: one patient
Description: • The primary endpoint was the occurrence of DLTs during Cycle 1. • The secondary endpoints were: • Treatment-emergent adverse events (TEAEs); • Laboratory abnormalities; and, • Pharmacokinetic parameters (Cmax, Ceoi, tmax, tlast, AUClast, AUCO-24, AUCO-72, t1/2z, AUC, CL and Vss). • The effect of the degree of hepatic impairment on cabazitaxel PK parameters was evaluated according to a linear mixed effects model (Log [parameter]=Cohort+Error) with a fixed term for Cohort, fit by estimated generalized least squares (GLS) using SAS PROC MIXED. Estimate and 90% confidence interval (CI) for the geometric mean ratio of each cohort versus Cohort 1 and of Cohorts 3 and 4 versus Cohort 2 were provided for CL, CL/BSA, and exposure parameters (Cmax, AUC, AUClast, AUCO-24 and AUCO-72) normalized to actual cabazitaxel dose in mg/m^2.
• The study was designed as an open-label, dose-escalation, multi-center study of cabazitaxel administered as a 1-hour intravenous (IV) infusion every 3 weeks in cancer patients with varying degrees of hepatic impairment. Patients were enrolled in 4 cohorts based on hepatic function at baseline graded by total bilirubin and aspartate aminotransferase (AST): • Cohort 1: normal hepatic function (total bilirubin supper limit of normal [ULN]; aspartate aminotransferase [AST]≦ULN), • Cohort 2: mild hepatic impairment (total bilirubin >1 to ≦1.5×ULN or AST>1.5×ULN), • Cohort 3: moderate hepatic impairment (total bilirubin >1.5× to ≦3.0×ULN; AST=any), • Cohort 4: severe hepatic impairment (total bilirubin >3.0×-10×ULN; AST=any). • All liver function tests must be completed within 48 hours prior to start of treatment, and reviewed by the investigator or their designee before treatment administration.
Cabazitaxel is administered on Day 1 of each 3-week cycle. Patients received cabazitaxel administered by IV infusion over 1 hour at the dose specified for each cohort. The actual amount of cabazitaxel administered was adjusted at each cycle based on body surface area (BSA) to a maximum BSA of 2.1 m^2 (i.e., patients with a BSA over 2.1 m2 will receive the same amount of cabazitaxel as those with a BSA of 2.1 m).
For Cohorts 2, 3 and 4, dose-escalation was based on dose-limiting toxicities (DLTs) during Cycle 1; real time PK information was used along with safety information. The maximum administered dose (MAD) was to be reached at the dose level when at least 2 patients develop a DLT during Cycle 1. The MTD was defined as the highest dose at which no more than 0 of the first 3 patients, or 1 of 6 patients, experience a DLT during Cycle 1, to a maximum dose of 25 mg/m2. The MTD was one dose level below the MAD.
To be considered a DLT, the clinical adverse event (AE) or laboratory abnormality should be drug-related as assessed by the investigator.
Liver DLTs in patients with hepatic dysfunction (Cohorts 2, 3 and 4) were defined as an increase in total and direct bilirubin and/or transaminase levels to 3 times the baseline value.

[4] = Cohort 2, mild hepatic impairment
[5] = Cohort 3 at the MTD, 4/7 patients

CO[C@H]1C(=O)[C@]2(C)[C@@H](OC)C[C@H]3OC[C@@]3(OC(C)=O)[C@H]2[C@H](OC(=O)c2ccccc2)[C@]2(O)C[C@H](OC(=O)[C@H](O)[C@@H](NC(=O)OC(C)(C)C)c3ccccc3)C(C)=C1C2(C)C [cabazitaxel, 4α-acetoxy-2α-benzoyloxy-5β,20-epoxy-1-hydroxy-7, 101-dimethoxy-9-oxo-11-taxen-13α-yl (2R,3S)-3-tert-butoxycarbonyl-amino-2-hydroxy-3-phenylpropionate]
CL/BSA estimate ([1]; Cohort 1, normal hepatic function, 90% CI: 8.6-20.8): 13.4 L/h/m2
CL/BSA estimate ([1]; Cohort 2, mild hepatic impairment, 90% CI: 17.6-31.4): 23.5 L/h/m2
CL/BSA geometric mean ratio ([1]; Cohort 2 versus Cohort 1, 75% increase, 90% CI: 1.04-2.96): 1.75
mean CL/BSA ([1]; Cohort 3/10 mg/m^2 (aberrant PK behavior, excluded from statistical analysis)): 517 L/h/m2
CL/BSA geometric mean ratio, sensitivity analysis ([1]; Cohort 3 versus Cohort 2, after exclusion of patients with erratic PK profile, 6% decrease, 90% CI: 0.64-1.38): 0.94
AUClast/dose geometric mean ratio ([1]; Cohort 3 versus Cohort 2, 14% decrease, 90% CI: 0.50-1.46): 0.86
CL/BSA geometric mean ratio ([1]; Cohort 3 versus Cohort 2, 19% increase, 90% CI: 0.74-1.91): 1.19
CL/BSA geometric mean ratio, sensitivity analysis ([1]; Cohort 4 versus Cohort 2, after exclusion of patients with erratic PK profile, 39% decrease, 90% CI: 0.36-1.05): 0.61
AUClast/dose geometric mean ratio ([1]; Cohort 4 versus Cohort 2, 17% increase, 90% CI: 0.63-2.14): 1.17
CL/BSA geometric mean ratio ([1]; Cohort 4 versus Cohort 2, 23% decrease, 90% CI: 0.39-1.53): 0.77
mean CL/BSA, Cohort 3/10 mg/m^2 versus other Cohort 3 patients ([1]; higher): approximately 20 fold
effect of hepatic impairment on cabazitaxel clearance ([1]; mild or moderate hepatic impairment): no evidence that mild or moderate hepatic impairment results in a substantial decline in cabazitaxel clearance
CL/BSA estimate ([1]; moderate hepatic impairment): 27.9 L/h/m2
mean CL/BSA ([1]; other Cohort 3 patients, 15 and 20 mg/m2): 30.5 L/h/m2
CL/BSA estimate ([1]; severe hepatic impairment): 18.1 L/h/m2
typical cabazitaxel clearance (CL/BSA) by population PK analysis [2]: 26.4 L/h/m2
maximum administered dose (MAD) [3, 4]: 25 mg/m2
maximum tolerated dose (MTD) [3, 4]: 20 mg/m^2
death related to study drug ([3]; Cohort 2/20 mg/m^2): died due to Gr 4 Candida sepsis related to study drug
maximum tolerated dose (MTD) ([3]; Cohort 3, moderate hepatic impairment): 15 mg/m^2
study drug-related febrile neutropenia, patients ([3]; Cohort 3 at the MTD, 1/7 patients): 14.3%
study drug-related TEAE diarrhea, patients ([3]; Cohort 3 at the MTD, 3/7 patients): 42.9%
Gr≧3 on-treatment neutrophil count decreased, patients [3, 5]: 57.1%
Gr≧3 on-treatment white blood cell count decreased, patients [3, 5]: 57.1%
death related to study drug ([3]; Cohort 4/20 mg/m^2): died due to a combination of shock, acute renal failure, tumor lysis syndrome (all related to study drug)
death due to disease progression, patients ([3]; all cohorts, 21/43 patients): 48.8%
patients who died by the cut-off date ([3]; all cohorts, 23 of 43 patients): 53.5%
study drug-related TEAE diarrhea, patients ([3]; human, in vivo): 41.7%
study drug-related TEAE fatigue, patients ([3]; human, in vivo): 83.3%
study drug-related serious TEAE febrile neutropenia, patients ([3]; human, in vivo): 25.0%
study drug-related serious TEAE neutropenia (Gr≧3), patients ([3]; human, in vivo): 33.3%
maximum administered dose (MAD) ([3]; human, in vivo, 3 weeks): 20 mg/m2
febrile neutropenia ([3]; in vivo): No patient experienced febrile neutropenia
safety profile at the MTD ([3]; patients with mild or moderate hepatic impairment): generally similar to that observed at 25 mg/m^2 in patients with normal hepatic function
